Measured values: patent US20190192413A1, “SKIN ANTI-AGING COMPOSITION CONTAINING DEHYDROGENATED ABIETIC ACID AND COMPOUND K” (AMOREPACIFIC CORPORATION, priority 2016, published 2019)

What was measured:
Format in all cases: cell-based
human normal fibroblasts [1] = experiment: Skin cell proliferation (MTT assay); settings: 10 ppm, 24 hours; for Cell proliferation effect (%): relative to control group (equation 1); for Absorbance (570 nm): MTT, serum-free DMEM, control group 0.355
Experimental: In order to examine the effect on skin cell proliferation that reduces wrinkles and enhances skin elasticity, human normal fibroblasts were seeded into a 96-well microplate at a density of 1×10^4 cells/well, and incubated in DMEM (Dulbecco's Modified Eagle's Medium) medium for 24 hours. After incubation, the medium was replaced with serum-free DMEM media containing 10 ppm of each of dehydroabietic acid (Comparative Example 1), compound K (Comparative Example 2), and a mixture of dehydroabietic acid and compound K (weight ratio of 1:7; Example 1), and then the cells were further incubated for 24 hours. Then, 10 μl of 3-(4,5-dimethylthiazol-2-yl)-2,5-diphenyl tetrazolium (MTT, 5 mg/ml) was added to each well, which was then allowed to stand for 4 hours, followed by removal of the medium. Then, 100 μl of dimethyl sulfoxide solution was added to each well, and the absorbance at 570 nm was measured with a microplate reader. Based on the experiment results, the cell proliferation effect was calculated using the following equation 1. [formula]

human normal fibroblasts [2] = experiment: Promotion of collagen biosynthesis (procollagen type-I C-peptide, PICP, in supernatant); settings: 10 ppm, 48 hours, control group 125
Experimental: In order to examine the effect on the promotion of collagen biosynthesis that reduces wrinkles and enhances skin elasticity, human normal fibroblasts were seeded into a 96-well microplate at a density of 1×10^4 cells/well, and incubated in DMEM (Dulbecco's Modified Eagle's Medium) medium for 24 hours. After incubation, the medium was replaced with serum-free DMEM media containing 10 ppm of each of dehydroabietic acid (Comparative Example 1), compound K (Comparative Example 2), and a mixture of dehydroabietic acid and compound K (weight ratio of 1:7; Example 1) and then the cells were further incubated for 48 hours. At 24 hours before completion of the incubation, 10 μM ascorbic acid as the positive control was added to each well to promote collagen synthesis. After completion, each well was washed, and the medium was replaced with serum-free DMEM medium, after which the cells were further incubated for 24 hours. After incubation, the supernatant of each well was collected, and the amount of procollagen type-I C-peptide (PICP) in the supernatant was measured using a kit (Takara, Kyoto, Japan) to determine the amount of newly synthesized collagen.

human normal fibroblasts [3] = experiment: Inhibition of lipofuscin accumulation in skin cells (lipofuscin fluorescence); settings: for Absorbance (570 nm): 10 ppm, after 10 passages of subculture, excitation 360 nm, emission 570 nm, control group 0.650; for inhibition at 10 ppm: Homo sapiens, Fibroblast, after 10 passages, relative to control group (equation 2), read-out: Lipofusin accumulation inhibition rate (%)
Experimental: In order to examine the effect on the inhibition of lipofuscin accumulation that prevents aging, human normal fibroblasts were seeded into a 96-well microplate at a density of 1×10^4 cells/well, and incubated in DMEM (Dulbecco's Modified Eagle's Medium) medium for 24 hours. After incubation, the medium was replaced with serum-free DMEM media containing 10 ppm of each of dehydroabietic acid (Comparative Example 1), compound K (Comparative Example 2), and a mixture of dehydroabietic acid and compound K (weight ratio of 1:7; Example 1). Then, the cells were subcultured in a fresh medium every 48 hours. After 10 passages of subculture, the fluorescence of the self-luminescent protein lipofuscin in the cells was measured using a microplate reader with the excitation wavelength of 360 nm and the emission wavelength of 570 nm. Based on the experiment results, the effect on inhibition of lipofuscin accumulation was calculated using the following equation 2. [formula]

Compound | Cell proliferation effect (%) (human normal fibroblasts [1]) | Absorbance (570 nm) (human normal fibroblasts [1]) | Amount of collagen synthesized (human normal fibroblasts [2]) | Absorbance (570 nm) (human normal fibroblasts [3]) | inhibition at 10 ppm (human normal fibroblasts [3])
CC(C)c1ccc2c(c1)CC[C@H]1[C@](C)(C(=O)O)CCC[C@]21C [Comparative Example 1, dehydroabietic acid] | 53.8% | 0.546 | 174 ng/2 × 10^4 | 0.465 | 28.5%
CC(C)=CCC[C@](C)(O[C@@H]1O[C@H](CO)[C@@H](O)[C@H](O)[C@H]1O)[C@H]1CC[C@]2(C)[C@@H]1[C@H](O)C[C@@H]1[C@@]3(C)CC[C@H](O)C(C)(C)[C@@H]3CC[C@]12C [Comparative Example 2, compound K] | 46.5% | 0.520 | 162 ng/2 × 10^4 | 0.448 | 31.1%
O=C1O[C@H]([C@@H](O)CO)C(O)=C1O [Ascorbic acid, ascorbic acid] | – | – | 186 ng/2 × 10^4 | – | –
